# According to PubChem BioAssay (NCI):
# Where “and” joins values, the source holds several entries; their conditions need not be identical. Identical values can stand only once.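 Cells were grown in 96-well plates and exposed to each compound for 48 hours at five concentrations; endpoints were interpolated linearly between bracketing concentrations, or set to the highest concentration if not reached. GI50 marks 50% less growth. TGI denotes the concentration required for complete inhibition of growth.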 *1 amine or outer side, *2 acyl side, *3 side chain or, on linkers, in order; H or OH if unused. Where a SMILES comes first, the peptide text is derived from it. Bridges are numbered along the chain shown (N, C = ends). [ ]: non-standard residue; d: D form. The star is where a group is joined. Phe(3-Me) = Cc1cccc(C[C@H](N)C(=O)O)c1; NH(4-Cl-2-F-phenyl) = Fc1cc(Cl)ccc1N*; Pro(4R-Me) = C[C@H]1CN[C@H](C(=O)O)C1; Propanoyl(3-NMe2) = CN(C)CCC(=O)*; Hyp = O=C(O)[C@@H]1C[C@@H](O)CN1; aThr = C[C@H](O)[C@H](N)C(=O)O; Pip = O=C(O)[C@@H]1CCCCN1; CO = O=C([*:1])[*:2]
# Legend:
# Assay in all cases: inhibition of tumour cell growth, NCI panel, 48 h
# SK-OV-3 ovarian = tested on: SK-OV-3 ovarian
# MOLT-4 leukemia = tested on: MOLT-4 leukemia
# HS 578T breast = tested on: HS 578T breast
# M14 melanoma = tested on: M14 melanoma
# SF-539 CNS = tested on: SF-539 CNS
# UACC-62 melanoma = tested on: UACC-62 melanoma
# SNB-19 CNS = tested on: SNB-19 CNS
# OVCAR-4 ovarian = tested on: OVCAR-4 ovarian
# IGROV1 ovarian = tested on: IGROV1 ovarian
# SNB-75 CNS = tested on: SNB-75 CNS
Structure (SMILES),GI50 (SK-OV-3 ovarian),TGI (SK-OV-3 ovarian),GI50 (MOLT-4 leukemia),TGI (MOLT-4 leukemia),GI50 (HS 578T breast),TGI (HS 578T breast),GI50 (M14 melanoma),TGI (M14 melanoma),GI50 (SF-539 CNS),TGI (SF-539 CNS),GI50 (UACC-62 melanoma),TGI (UACC-62 melanoma),GI50 (SNB-19 CNS),TGI (SNB-19 CNS),GI50 (OVCAR-4 ovarian),TGI (OVCAR-4 ovarian),GI50 (IGROV1 ovarian),TGI (IGROV1 ovarian),GI50 (SNB-75 CNS),TGI (SNB-75 CNS)
CC/C=C\C/C=C\C[C@H]1C/C=C2/C(=O)C=C[C@H]2C/C=C\CCC(=O)O1,10 µM,> 14.3 µM,3.48 µM,10.5 µM,4.85 µM,> 14.3 µM,4.48 µM,> 14.3 µM,4.44 µM,> 14.3 µM,2.09 µM,5.47 µM,5.04 µM,> 14.3 µM,5.22 µM,> 14.3 µM,3.71 µM,11.8 µM,10.1 µM,> 14.3 µM
C=C1N(C)c2ccc(Cl)cc2C1(C)C,18.1 µM,65.4 µM,6.94 µM,55 µM,6.34 µM,> 100 µM,5.73 µM,24.5 µM,19.6 µM,62.5 µM,11.7 µM,29.5 µM,8.75 µM,> 100 µM,4.83 µM,> 100 µM,8.35 µM,65.4 µM,4.25 µM,77.3 µM
S=C(N/N=C(/c1ccccc1)c1ccccn1)Nc1cccc(Cl)c1,0.0671 µM,2.93 µM and 3.73 µM,0.00303 µM,–,0.0125 µM,–,0.0154 µM,2.24 µM and 1.89 µM,1.12 µM,2.97 µM and 5.99 µM,–,0.793 µM and 2.66 µM,0.786 µM,15.3 µM,1.1 µM,3.67 µM and 15.9 µM,0.28 µM,2.03 µM and 6.68 µM,0.608 µM,2.92 µM and 4.88 µM
COc1ccc(/C=C/C(=O)c2ccc(Nc3ccnc4cc(Cl)ccc34)cc2)cc1,> 100 µM,> 100 µM,4.35 µM,> 48.4 µM,> 100 µM,> 100 µM,> 100 µM,> 100 µM,> 100 µM,> 100 µM,62.6 µM,> 100 µM,> 100 µM,> 100 µM,> 100 µM,> 100 µM,> 100 µM,> 100 µM,> 100 µM,> 100 µM
O=c1cccc(C#CC#C/C=C/CO)o1,10.8 µM,22.8 µM,9.1 µM,> 100 µM,6.87 µM,39.9 µM,4.12 µM,–,3.19 µM,8.26 µM,1.68 µM,3.39 µM,3.06 µM,10.7 µM,3.1 µM,> 100 µM,2.82 µM,–,17 µM,92.9 µM
Oc1cc2ccccc2cc1-c1n[nH]c(=S)n1-c1ccc(Cl)cc1,28.6 µM,> 100 µM,22.7 µM,> 100 µM,12.4 µM,90.2 µM,15.1 µM,> 100 µM,15.3 µM,50.8 µM,7.88 µM,28.8 µM,25.4 µM,> 100 µM,40.5 µM,> 100 µM,1.31 µM,7.67 µM,28.7 µM,> 100 µM
C[C@]12CC[C@H]3[C@@H](C[C@@H]4N=C(c5ccc(O)cc5)S[C@@]45C[C@H](O)CC[C@]35C)[C@@H]1CC[C@@H]2O,19 µM,> 100 µM,1.93 µM,> 100 µM,1.59 µM,60.1 µM,2.86 µM,29.3 µM,0.454 µM,3.23 µM,2.43 µM,7.64 µM,7.95 µM,> 100 µM,7.24 µM,> 100 µM,11.1 µM,> 100 µM,1.84 µM,25.7 µM
O=C(Nc1ccc(Br)cc1F)c1cc(Br)ccc1O,1.62 µM,8.12 µM,1.45 µM,4.49 µM,0.467 µM,5.66 µM,0.713 µM,5.48 µM,0.552 µM,4.64 µM,0.303 µM,1.23 µM,0.502 µM,27.9 µM,0.604 µM,25.3 µM,0.4 µM,15.3 µM,0.768 µM,5.95 µM
O=C(/C=C/c1cccnc1)c1ccccc1O,33.7 µM,> 100 µM,23 µM,73.5 µM,35.9 µM,> 100 µM,16.9 µM,34.1 µM,14.4 µM,34.7 µM,16.2 µM,35.3 µM,20.3 µM,62.5 µM,29.5 µM,> 100 µM,20.1 µM,50 µM,16.5 µM,59.1 µM
COc1ccc(CC2C3=C(CCCC3)CCN2C)cc1 (stereo not given),–,> 100 µM,–,> 100 µM,–,> 100 µM,–,> 100 µM,–,> 100 µM,–,> 100 µM,–,> 100 µM,–,> 100 µM,–,> 100 µM,–,> 100 µM
O=C1c2ccccc2C(=O)c2c1ccc1c2OCO1,–,> 100 µM,–,> 100 µM,–,> 100 µM,–,> 100 µM,–,> 100 µM,–,> 100 µM,–,> 100 µM,–,> 100 µM,–,> 100 µM,–,> 100 µM
Cc1ccc(S(=O)(=O)n2cc(-c3nnnn3-c3ccc(Cl)cc3)c(=O)c3ccccc32)cc1,> 100 µM,> 100 µM,21.2 µM,57 µM,> 100 µM,> 100 µM,49.5 µM,> 100 µM,> 100 µM,> 100 µM,54.8 µM,> 100 µM,> 100 µM,> 100 µM,53.7 µM,> 100 µM,> 100 µM,> 100 µM,39.6 µM,> 100 µM
CC(=O)c1ccc(NCN2C(=O)c3ccccc3C2=O)cc1,–,> 100 µM,–,> 100 µM,–,> 100 µM,–,> 100 µM,–,> 100 µM,–,> 100 µM,–,> 100 µM,–,> 100 µM,–,> 100 µM,–,> 100 µM
CC(=O)Nc1sc2c(c1-c1nc3ccccc3s1)CNC2,4.05 µM,39.2 µM,2.03 µM,9.2 µM,7.05 µM,22.6 µM,2.47 µM,9.71 µM,2.17 µM,8.52 µM,2.76 µM,11.7 µM,3.49 µM,28.9 µM,3.08 µM,24.8 µM,2.07 µM,11.9 µM,1.81 µM,9.52 µM
Cc1cccc(C[C@H](NC(=O)Nc2ccc(Cl)cc2F)C(=O)N[C@@H]2C(=O)N3C[C@H](OC(=O)CCN(C)C)C[C@H]3C(=O)N3CCCC[C@H]3C(=O)N[C@@H](C)C(=O)N3C[C@H](C)C[C@H]3C(=O)O[C@H]2C)c1 ({NH(4-Cl-2-F-phenyl)-CO}-[Phe(3-Me)][aThr][Hyp](Propanoyl(3-NMe2))[Pip]A[Pro(4R-Me)]; ester 2-C),0.487 µM,5.74 µM,0.811 µM,4.65 µM,0.474 µM,3.82 µM,0.474 µM,1.89 µM,0.704 µM,2.17 µM,0.569 µM,2.06 µM,0.389 µM,11.5 µM,0.334 µM,2.06 µM,0.94 µM,2.46 µM,1.26 µM,9.44 µM
CN1CCCCC1CCN1c2ccccc2Sc2ccc(S(C)=O)cc21 (stereo not given),–,> 100 µM,–,> 100 µM,–,> 100 µM,–,> 100 µM,–,> 100 µM,–,> 100 µM,–,> 100 µM,–,> 100 µM,–,> 100 µM,–,> 100 µM
CN1CCCN(C(c2ccccc2)c2ccc(Br)cc2)CC1 (stereo not given),3.66 µM,14.5 µM,3.92 µM,58.2 µM,2.37 µM,6.35 µM,1.61 µM,2.99 µM,3.09 µM,11.1 µM,2.03 µM,4.35 µM,14.8 µM,28 µM,7.63 µM,20.5 µM,8.83 µM,22.1 µM,3.1 µM,17.9 µM
O=C(O)/C=C\C(=O)Nc1ccc2c(c1)C(=O)c1cc(F)ccc1-2,–,> 100 µM,–,> 100 µM,–,> 100 µM,–,> 100 µM,–,> 100 µM,–,> 100 µM,–,> 100 µM,–,> 100 µM,–,> 100 µM,–,> 100 µM
COc1cc2c3c(c4c5ccccc5[nH]c4c2c(OC)c1OC)C(=O)N(CCN1CCCCC1)C3=O,1.18 µM,2.53 µM,0.536 µM,9.23 µM,1.84 µM,4.59 µM,1.82 µM,4.25 µM,1.38 µM,2.72 µM,3.88 µM,9.12 µM,1.05 µM,2.42 µM,1.26 µM,3.14 µM,0.661 µM,2.22 µM,2.47 µM,7.19 µM
COc1cc(NC(N)=NCCC(C)(C)c2ccc(C(F)(F)F)cc2)ncc1C#N,2.13 µM,4.06 µM,1.84 µM,5.25 µM,2.14 µM,4.55 µM,1.7 µM,3.24 µM,1.87 µM,3.33 µM,1.71 µM,3.1 µM,1.79 µM,3.44 µM,1.82 µM,4.12 µM,1.68 µM,3.39 µM,1.66 µM,3.26 µM
O=S(=O)(NCCCNc1cc(-c2cn(-c3ccccc3)nc2-c2cccc(O)c2)ccn1)c1ccc(Cl)cc1,2.35 µM,7.35 µM,1.26 µM,3.69 µM,1.16 µM,4.77 µM,1.6 µM,3.2 µM,1.77 µM,3.79 µM,1.67 µM,3.67 µM,2.68 µM,8.37 µM,1.67 µM,5.92 µM,2.96 µM,13.2 µM,1.45 µM,7.99 µM
CCCN1CCN(c2ccc3nc(-c4ccc5nc(-c6ccc(OCC)c(OCC)c6)[nH]c5c4)[nH]c3c2)CC1,1.6 µM,7.54 µM,0.471 µM,3.34 µM,1.11 µM,3.56 µM,0.195 µM,1.39 µM,0.724 µM,2.05 µM,0.348 µM,1.87 µM,0.616 µM,1.98 µM,0.449 µM,1.84 µM,0.475 µM,2.42 µM,0.425 µM,1.9 µM
Nc1nc2c(c3cnccc13)C(c1cccc(Cl)c1)Cc1cnccc1-2 (stereo not given),0.51 µM,15 µM,0.494 µM,17.3 µM,0.466 µM,32.9 µM,0.297 µM,11 µM,0.255 µM,0.752 µM,0.371 µM,12 µM,0.453 µM,12.4 µM,2.23 µM,41 µM,0.644 µM,15.3 µM,0.38 µM,17.8 µM
